Reference: publication PMC8667942 (Journal of Enzyme Inhibition and Medicinal Chemistry, 2021)

Experiments:
[1] = target: T1, CYP2D6 (Homo sapiens, UniProt P10635); assay: Direct CYP inhibition assay, pooled human liver microsomes, LC-MS/MS; type: in vitro ADME; settings: pooled HLMs, up to 50 μM, dextromethorphan substrate
T1 construct: from tissue; host or cells: pooled human liver microsomes
Method: (§1) Reactions were incubated in eight-well strips placed in an 8 × 12 racks (1.2 ml; VWR, Emeryville, CA). The incubation mixtures (final volume, 200 μL) contained 0.2 mg/mL HLMs, 0.1 M phosphate buffer (pH 7.4), 1 mM NADPH, and various CYP isoform-specific substrate cocktail sets (A set: phenacetin, coumarin, amodiaquine, S-mephenytoin, dextromethorphan, and midazolam; B set: bupropion, tolbutamide, chlorzoxazone, and testosterone). […] Substrates were dissolved and serially diluted with acetonitrile to the required concentration in all experiments. […] The reactions were incubated at 37 °C in a shaking water bath. The reactions were terminated by placing the incubation tubes on ice, adding 200 μL of cold acetonitrile containing carbamazepine (100 nM) and 4-methylumbelliferone (500 nM) as an internal standard after 10 min, and agitating with a vortex mixer before centrifugation. The samples for each enzyme assay were centrifuged at 3,000 × g for 20 min at 4 °C, and supernatants of the individual reaction samples and pooled cocktail incubation samples (A set: B set, 1:1) were analysed using LC-MS/MS.
(§2) Sample injection volume was 10 μL, and separation was performed on an Atlantis™ dC18 column (2.1 × 50 mm i.d., 3 μm; Waters, Milford, MA, USA) and Luna™5u C18 column (2.0 × 30 mm i.d.; Phenomenex, Torrance, CA, USA) with a SecurityGuard™ C18 guard column (2.0 × 4.0 mm i.d.; Phenomenex, Torrance, CA, USA) maintained at 30 °C. The column was pre-equilibrated in 100% v/v solvent A (deionized water containing 0.1% v/v formic acid)/0% v/v solvent B (acetonitrile containing 0.1% v/v formic acid) at a flow rate of 0.4 ml/min. […] Quadrupoles Q1 and Q3 were set on unit resolution. The samples were analysed via multiple reaction monitoring (MRM) and enhanced product ion (EPI) scan mode. The turbo ion spray interface was operated in the positive ion mode at 5,500 V. The operating conditions were determined as follows: ion source temperature, 600 °C; nebulising gas flow, 50 L/min; auxiliary gas flow, 4.0 L/min; curtain gas flow, 20 L/min; collision gas (nitrogen) pressure 3.6 × 10^−5 Torr. Nitrogen gas was used for CUR, CAD, and NEB. The MRM transitions, collision energies and retention time were determined for each metabolite. The samples were analysed via MRM as described in our previous study. The scan dwell time was set at 0.08 s for every channel. Data acquisition and analysis was performed using the Analyst™ software (version 1.5.2; Applied Biosystems, Foster City, CA, USA).

[2] = target: T2, CYP2E1 (Homo sapiens, UniProt P05181); assay: as above; type: in vitro ADME; settings: pooled HLMs, up to 50 μM, chlorzoxazone substrate
T2 construct: from tissue; host or cells: pooled human liver microsomes
T2 sequence (P05181 whole entry): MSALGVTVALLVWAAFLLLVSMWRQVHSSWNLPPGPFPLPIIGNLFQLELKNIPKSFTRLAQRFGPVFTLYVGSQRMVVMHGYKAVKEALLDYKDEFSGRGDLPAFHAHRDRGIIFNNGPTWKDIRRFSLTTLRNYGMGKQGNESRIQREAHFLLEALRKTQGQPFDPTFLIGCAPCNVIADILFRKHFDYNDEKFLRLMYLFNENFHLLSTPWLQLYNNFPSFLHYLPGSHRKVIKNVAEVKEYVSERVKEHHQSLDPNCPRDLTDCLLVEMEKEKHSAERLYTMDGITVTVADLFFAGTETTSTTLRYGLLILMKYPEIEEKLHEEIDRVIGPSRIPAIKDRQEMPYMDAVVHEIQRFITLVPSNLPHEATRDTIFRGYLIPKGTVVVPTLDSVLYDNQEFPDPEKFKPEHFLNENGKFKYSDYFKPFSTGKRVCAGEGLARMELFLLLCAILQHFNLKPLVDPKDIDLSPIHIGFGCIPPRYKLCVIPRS
Method: as §1, §2

[3] = target: T3, CYP2C9 (Homo sapiens, UniProt P11712); assay: as above; type: in vitro ADME; settings: pooled HLMs, up to 50 μM, tolbutamide substrate
T3 construct: from tissue; host or cells: pooled human liver microsomes
T3 sequence (P11712 whole entry): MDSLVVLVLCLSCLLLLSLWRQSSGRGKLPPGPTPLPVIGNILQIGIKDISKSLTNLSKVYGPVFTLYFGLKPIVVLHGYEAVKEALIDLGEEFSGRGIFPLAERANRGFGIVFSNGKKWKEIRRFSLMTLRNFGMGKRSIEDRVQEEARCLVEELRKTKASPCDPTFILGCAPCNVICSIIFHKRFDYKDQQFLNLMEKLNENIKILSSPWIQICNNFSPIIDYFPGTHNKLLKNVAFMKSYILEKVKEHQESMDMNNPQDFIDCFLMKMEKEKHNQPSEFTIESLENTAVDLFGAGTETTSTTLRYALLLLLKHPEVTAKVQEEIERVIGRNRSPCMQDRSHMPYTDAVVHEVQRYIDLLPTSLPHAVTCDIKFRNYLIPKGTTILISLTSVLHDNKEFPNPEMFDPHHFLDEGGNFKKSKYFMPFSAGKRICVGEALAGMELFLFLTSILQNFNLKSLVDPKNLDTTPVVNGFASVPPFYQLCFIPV
Method: as §1, §2

[4] = target: T4, human IP6K2 (Homo sapiens, UniProt Q9UHH9); assay: IP6K2 inhibition assay (ADP Glo kinase assay); type: biochemical; settings: purified human IP6K2, 10 μM IP6, 10 μM ATP, 8-dose, triplicate, mean ± SEM
T4 construct: made in house; host or cells: Sf9 insect cells (baculovirus)
T4 sequence (Q9UHH9 1-426): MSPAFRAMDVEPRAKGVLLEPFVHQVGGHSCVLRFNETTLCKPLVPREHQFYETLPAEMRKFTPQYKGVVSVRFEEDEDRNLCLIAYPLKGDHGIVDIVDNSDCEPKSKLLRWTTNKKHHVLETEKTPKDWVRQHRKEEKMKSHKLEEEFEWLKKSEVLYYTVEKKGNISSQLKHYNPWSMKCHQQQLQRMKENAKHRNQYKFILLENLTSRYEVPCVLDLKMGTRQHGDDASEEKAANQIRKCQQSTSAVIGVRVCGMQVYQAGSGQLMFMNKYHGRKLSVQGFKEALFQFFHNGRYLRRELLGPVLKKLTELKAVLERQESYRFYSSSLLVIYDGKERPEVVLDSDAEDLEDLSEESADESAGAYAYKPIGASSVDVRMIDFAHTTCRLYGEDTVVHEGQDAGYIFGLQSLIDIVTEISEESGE
Method: Full-length human IP6K2 cDNA was subcloned into pFASTBAC1 plasmid (Gibco) with an N-terminal FLAG epitope sequence, and baculovirus was generated according to the manufacturer’s instructions. Sf9 insect cells were infected with baculovirus and incubated for 72 h. The cells were resuspended in lysis buffer [20 mM Tris–HCl (pH 7.9), 500 mM NaCl, 4 mM MgCl2, 0.4 mM EDTA, 2 mM DTT, 20% glycerol, 1 mM PMSF, and protease inhibitor cocktail (Roche)] and then disrupted with a Dounce homogeniser (pestle A, 3 series of 10 strokes with 10 min interval).
IP6K2 activity was measured using ADP Glo assay kit (Promega). All kinase assays were performed in low volume 384-well white plates (784075, Greiner-bioone) with a final volume of 5 μL. The reaction buffer contained 2 ng Flag-hIP6K2, 10 μM IP6, and 10 μM ATP in kinase buffer (50 mM Tris, 10 mM MgCl2, 2.5 mM DTT, 0.02% Triton-X-100, pH 6.8)[26]. For dose-dependent inhibition assay, 8 serial 2-fold dilutions of test compounds were prepared in DMSO. The final DMSO concentration was 5% in each reaction. The test compounds (5X, 25% DMSO in 1X kinase buffer) were dispensed to each well, and 2.5 X IP6K2 in kinase buffer were added. After 15 min incubation at room temperature, 2.5 X concentrations of IP6 and ATP were added to the plate. The reaction plate was incubated in a 37 °C incubator for 30 min. Next, the reactions were quenched with 5 μL of ADP Glo reagent for 40 min to deplete the remaining ATP. To convert the remaining ADP to ATP, 10 μl of detection reagent were added and incubated for 30–60 min. The luminescence of the final reactants was measured using the Mithras LB940 plate reader from Berthold. Samples were run in triplicate and the activity (%) was calculated using the following equations; Activity (%) = 100 × (μexperimental–μnegative)/(μpositive–μnegative). Negative control was DSMO-treated reaction. IC50 value was estimated using a logistic regression model with R package.

[5] = test system: IP6K; settings: [ATP] = 1 mM; cited from earlier work

T1 sequence (P10635 whole entry): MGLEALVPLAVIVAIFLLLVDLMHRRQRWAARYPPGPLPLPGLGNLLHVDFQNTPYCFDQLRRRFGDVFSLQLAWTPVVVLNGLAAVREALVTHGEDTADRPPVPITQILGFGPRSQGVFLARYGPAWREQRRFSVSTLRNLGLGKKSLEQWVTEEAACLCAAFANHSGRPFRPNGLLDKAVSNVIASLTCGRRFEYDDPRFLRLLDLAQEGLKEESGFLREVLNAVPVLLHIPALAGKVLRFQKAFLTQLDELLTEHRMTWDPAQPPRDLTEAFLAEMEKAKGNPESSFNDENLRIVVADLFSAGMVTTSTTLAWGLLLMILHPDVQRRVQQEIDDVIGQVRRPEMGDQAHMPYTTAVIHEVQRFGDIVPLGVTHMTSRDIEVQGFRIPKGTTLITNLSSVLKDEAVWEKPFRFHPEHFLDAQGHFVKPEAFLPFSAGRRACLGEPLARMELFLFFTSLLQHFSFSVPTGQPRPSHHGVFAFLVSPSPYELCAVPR

For `O=[N+]([O-])c1ccc(CNc2nc(NCc3cccc(C(F)(F)F)c3)nc3[nH]cnc23)cc1` [TNP, N^6-[(4-nitrophenyl)methyl]-N^2-[[3-(trifluoromethyl)phenyl]methyl]-9H-purine-2,6-diamine], the “inhibitory effect on CYP2D6” value [1] was “no inhibitory effect”, the “inhibitory effect on CYP2E1” value [2] was “no inhibitory effect” and the “inhibitory effect on CYP2C9” value [3] was “no inhibitory effect”. For the same compound, the IC50 [4] was 4500 ± 400 nM and the IC50 [5] was 470 nM.
